According to patent publication US5773459A, “Urea- and thiourea-type compounds” (Sugen, Inc., priority 1995, dated 1998):
Read-outs that look alike come from different tables or passages of the source.

What was measured:
[1] = system: MCF7 cells overexpressing the HER2 kinase (MCF7-HER2); test: MCF-7/HER-2 SRB Growth Assay; format: cell-based; settings: Homo sapiens, read-out: GROWTH DATA: MCF7-HER2 0.5% FBS
Source text: The following examples illustrate the ability of the exemplary compounds to inhibit receptor tyrosine kinases, such as HER2 and/or EGFR. The following target cells were used for cellular kinase assays: NIH3T3 clone C7 (Honegger et al., supra) engineered to over-express human EGF receptor; NIH3T3 cells engineered to over-express a chimeric receptor containing the EGFR extracellular domain and the HER2 intracellular kinase domain; the human mammary carcinoma line BT474 (ATCC HTB2) expressing HER2; and the human glioblastoma line U1242 that expresses PDGFR-beta. Growth assays were carried out using human mammary epithelial SKBR3 (ATCC HTB30) cells (SKBR3 cells over-express HER2), SKOV3 (ATCC HTB77) human ovarian cancer cell line (SKOV3 cells also over-express HER2), A431 cells (A431 cells over-express EGFR) MCF7 human breast carcinoma cells, MCF7 cells overexpressing the HER2 kinase (MCF7-HER2), NIH3T3 cells, and NIH3T3 cells overexpressing the HER2 kinase (3T3-HER2.
MCF-7/HER-2 SRB Growth Assay
The protocol is basically the same as that above (for the MCF-7 Growth Assay) except that immediately before the 30 compound is added, the normal growth media is removed and 0.5% FBS/RPMI supplemented with 2 mM Glutamine is added onto the cells. The compound is also prepared in this 0.5% serum media. The plate of cells is incubated for four days and developed as usual.

[2] = biological target: T1, human EGF receptor (Homo sapiens, UniProt P00533); test: EGFR Whole Cell Kinase Assay (EGFR-3T3 assay); format: cell-based
T1 construct: expressed in transfected cells; host or cells: NIH3T3 clone C7 (EGFR/C7)
Experimental: Growth assays were carried out using human mammary epithelial SKBR3 (ATCC HTB30) cells (SKBR3 cells over-express HER2), SKOV3 (ATCC HTB77) human ovarian cancer cell line (SKOV3 cells also over-express HER2), A431 cells (A431 cells over-express EGFR) MCF7 human breast carcinoma cells, MCF7 cells overexpressing the HER2 kinase (MCF7-HER2), NIH3T3 cells, and NIH3T3 cells overexpressing the HER2 kinase (3T3-HER2.
EGFR Whole Cell Kinase Assay
EGFR kinase activity (EGFR-3T3 assay) in whole cells was measured as described below:
Coated plates are good for up to 10 days when stored at 4.sunburst.C.
B. On day of use, remove coating buffer and replace with blocking buffer (5% Carnation Instant NonFat Dry Milk in PBS). Incubate the plate, shaking, at room temperature (about 23.sunburst.C to 25.sunburst.C) for 30 minutes. Just prior to use, remove blocking buffer and wash plate 4 times with TBST buffer.
A. EGFR/C7 cell line (Honegger, et al., supra) can be used for this assay.
B. Choose dishes having 80-90% confluence for the experiment.
Trypsinize cells and stop reaction by adding 10% CS DMEM medium. Suspend cells in DMEM medium (10% CS DMEM medium) and centrifuge once at 1000 rpm, and once at room temperature for 5 minutes.
C. Resuspend cells in seeding medium (DMEM, 0.5% bovine serum), and count the cells using trypan blue. Viability above 90% is acceptable. Seed cells in DMEM medium (0.5% bovine serum) at a density of 10,000 cells per well, 100 μl per well, in a 96 well microtiter plate. Incubate seeded cells in 5% CO2 at 37.sunburst.C for about 40 hours.
A. Check seeded cells for contamination using an inverted microscope. Dilute drug stock (10 mg/ml in DMSO) 1:10 in DMEM medium, then transfer 5 μl to a test well for a final drug dilution of 1:200 and a final DMSO concentration of 1%.
Control wells receive DMSO alone. Incubate in 5% CO2 at 37° C. for one hour.
C. Prepare fresh HNTG sufficient for 100 μl per well; and place on ice.
Control wells receive DMEM alone. […]
K. The maximal phosphotyrosine signal is determined by subtracting the value of the negative controls from the positive controls.

[3] = EGFR/C7 NIH3T3 cells, EGF stimulated, read-out: ELISA DATA: EGFR

T1 sequence (P00533 25-1210): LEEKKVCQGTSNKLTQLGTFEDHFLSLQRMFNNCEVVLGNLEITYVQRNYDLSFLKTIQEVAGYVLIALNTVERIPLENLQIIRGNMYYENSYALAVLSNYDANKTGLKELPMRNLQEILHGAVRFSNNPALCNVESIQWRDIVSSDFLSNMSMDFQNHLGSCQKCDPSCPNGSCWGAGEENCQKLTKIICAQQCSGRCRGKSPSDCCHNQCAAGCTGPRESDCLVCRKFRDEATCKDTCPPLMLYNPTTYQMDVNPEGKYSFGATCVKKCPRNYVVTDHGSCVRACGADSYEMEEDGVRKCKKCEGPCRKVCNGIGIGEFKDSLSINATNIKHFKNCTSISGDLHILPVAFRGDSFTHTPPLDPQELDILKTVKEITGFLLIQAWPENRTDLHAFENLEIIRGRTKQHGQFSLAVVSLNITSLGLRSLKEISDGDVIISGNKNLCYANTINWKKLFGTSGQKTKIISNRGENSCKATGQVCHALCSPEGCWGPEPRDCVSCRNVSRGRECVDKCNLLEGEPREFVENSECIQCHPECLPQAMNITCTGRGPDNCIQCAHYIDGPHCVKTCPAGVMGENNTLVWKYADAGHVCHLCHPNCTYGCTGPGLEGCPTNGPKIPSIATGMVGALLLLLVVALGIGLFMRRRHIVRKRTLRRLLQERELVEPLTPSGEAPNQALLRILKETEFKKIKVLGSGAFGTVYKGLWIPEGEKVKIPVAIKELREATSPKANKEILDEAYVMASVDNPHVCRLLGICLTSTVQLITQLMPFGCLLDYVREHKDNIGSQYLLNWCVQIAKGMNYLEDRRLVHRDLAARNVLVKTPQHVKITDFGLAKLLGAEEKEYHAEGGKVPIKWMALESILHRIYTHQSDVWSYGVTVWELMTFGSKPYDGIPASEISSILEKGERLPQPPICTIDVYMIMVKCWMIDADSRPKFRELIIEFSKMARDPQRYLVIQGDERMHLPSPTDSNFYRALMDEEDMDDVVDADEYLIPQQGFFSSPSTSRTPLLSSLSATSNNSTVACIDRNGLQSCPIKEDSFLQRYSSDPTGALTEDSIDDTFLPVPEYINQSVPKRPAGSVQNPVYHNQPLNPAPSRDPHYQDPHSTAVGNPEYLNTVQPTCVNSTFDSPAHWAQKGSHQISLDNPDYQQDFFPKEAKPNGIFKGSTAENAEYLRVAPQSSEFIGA

Row | SMILES | IC50 [1] [nM] | IC50 [2, 3] [nM] | IC50 [2] [nM]
1 | CC(C)S(=O)(=O)c1csc(NC(=O)Nc2ccc(C(C)(C)C)cc2)c1Cl [Example Z1, N-[3-Chloro-4-(isopropylsulfonyl)thien-2-yl]-N'-(4-t-butylphenyl)urea] | 900 | > 100000 | 
2 | N#Cc1ccc(NC(=S)Nc2ccc(S(=O)(=O)N3CCCCC3)cc2)cc1 [Example Z4, N-(4-Cyanophenyl)-N'-[4-[(piperid-1-yl)sulfonyl]phenyl]thiourea] | 1000 | > 100000 | 
3 | CC(C)S(=O)(=O)c1csc(NC(=O)Nc2cc(C(F)(F)F)cc(C(F)(F)F)c2)c1Cl [Example Z2, N-[3-Chloro-4-(isopropylsulfonyl)thien-2-yl]-N'-(3,5-di-trifluoromethylphenyl)urea] | 300 |  | 
4 | O=C(Nc1ccc(SC(F)(F)F)cc1)Nc1ccc(Oc2ccc(Cl)cc2Cl)nc1 [Example Z3] | 200 |  | 69500
